The compounds below were run against T1, CCR1 (Homo sapiens, UniProt P32246) (assay: functional cellular assay measuring calcium flux in CCR1 transfected cells (block of CCR1/MIP-1α interaction)). Settings: cells stably expressing recombinant CCR1 and G-alpha-16, MIP-1alpha added at EC80.
T1 construct: host or cells: Non-adherent cells
T1 sequence (P32246 1-355): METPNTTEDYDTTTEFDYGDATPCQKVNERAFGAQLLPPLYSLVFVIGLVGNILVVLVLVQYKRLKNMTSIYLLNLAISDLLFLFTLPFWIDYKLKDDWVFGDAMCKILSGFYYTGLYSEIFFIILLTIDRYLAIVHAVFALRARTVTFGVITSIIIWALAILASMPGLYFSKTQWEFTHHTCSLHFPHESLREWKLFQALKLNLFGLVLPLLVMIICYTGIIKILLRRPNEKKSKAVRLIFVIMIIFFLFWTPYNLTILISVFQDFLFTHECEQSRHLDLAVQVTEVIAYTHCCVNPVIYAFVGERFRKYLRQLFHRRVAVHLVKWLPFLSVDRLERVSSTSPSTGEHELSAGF
Format: cell-based
Protocol: Compounds are assessed for the ability to block the interaction of CCR1 and MIP-1α in a functional cellular assay measuring calcium flux in CCR1 transfected cells.
Non-adherent cells purchased from Chemicon Corporation (HTS005C), stably expressing recombinant CCR1 and G-alpha-16 are grown in RPMI 1640 medium (Mediatech 10-080-CM) supplemented with 10% FBS, 0.4 mg/mL Geneticin and penicillin/streptomycin. On the day of the assay, the cells are loaded with Calcium 4 dye (Molecular Devices R7448) with Probenecid (Invitrogen P346400) at 8E5 cells/mL for 1 hour at room temperature. After 1 hour, they are seeded in a 384-well tissue culture-treated plate at a density of 20,000 cells/well. Appropriately diluted test compound is added to the well to achieve a top concentration of 3,000 nM (diluted 4-fold with 10 doses total). The final concentration of DMSO is 1%. The buffer is HBSS (Invitrogen 14025) with 20 mM HEPES at pH 7.4. The cells incubate 30 minutes at 37 C and then 30 minutes at room temperature. The plates are transferred to the […] FDSS6000 where MIP-1alpha in 1% BSA is added at the EC80 final concentration. All plates must be read within 4 hours of the start of dye-loading. Wells +/− MIP-1alpha containing diluted DMSO instead of compound serve as the controls. Data are analyzed using Activity Base software.
`O=C(NC1(c2ncc(Br)cn2)CC1)c1cncc2c1cnn2-c1ccc(F)cc1` [1-(4-Fluoro-phenyl)-1H-pyrazolo[3,4-c]pyridine-4-carboxylic acid [1-(5-bromo-pyrimidin-2-yl)-cyclopropyl]-amide] gave an IC50 of 45 nM. `O=C(NC1(c2noc(C3CC3)n2)CC1)c1cncc2c1cnn2-c1ccc(F)cc1` [1-(4-Fluoro-phenyl)-1H-pyrazolo[3,4-c]pyridine-4-carboxylic acid [1-(5-cyclopropyl-1,2,4-oxadiazol-3-yl)-cyclopropyl]-amide] showed an IC50 of 61 nM. In the case of `CS(=O)(=O)c1ccc(C2(NC(=O)c3cncc4c3cnn4-c3ccc(F)cc3)CC2)o1` [1-(4-Fluoro-phenyl)-1H-pyrazolo[3,4-c]pyridine-4-carboxylic acid [1-(5-methanesulfonyl-furan-2-yl)-cyclopropyl]-amide], the IC50 is reported as 4 nM. Compound `CS(=O)(=O)c1cnc(C2(NC(=O)c3cncc4c3cnn4-c3ccc(F)cc3)CC2)nc1` [1-(4-Fluoro-phenyl)-1H-pyrazolo[3,4-c]pyridine-4-carboxylic acid [1-(5-methanesulfonyl-pyrimidin-2-yl)-cyclopropyl]-amide] has an IC50 of 14 nM. `O=C(NC1(c2ccc(Br)nc2)CC1)c1cncc2c1cnn2-c1ccc(F)cc1` [1-(4-Fluoro-phenyl)-1H-pyrazolo[3,4-c]pyridine-4-carboxylic acid [1-(6-bromo-pyridin-3-yl)-cyclopropyl]-amide] showed an IC50 of 19 nM. For `CN(C)c1cccc(C2(NC(=O)c3cncc4c3cnn4-c3ccc(F)cc3)CC2)n1` [1-(4-Fluoro-phenyl)-1H-pyrazolo[3,4-c]pyridine-4-carboxylic acid [1-(6-dimethylamino-pyridin-2-yl)-cyclopropyl]-amide], the IC50 was 3 nM. With `CS(=O)(=O)c1ccc(C2(NC(=O)c3cncc4c3cnn4-c3ccc(F)cc3)CC2)cn1` [1-(4-Fluoro-phenyl)-1H-pyrazolo[3,4-c]pyridine-4-carboxylic acid [1-(6-methanesulfonyl-pyridin-3-yl)-cyclopropyl]-amide] the IC50 was 7 nM. `CNc1ccc(C2(NC(=O)c3cncc4c3cnn4-c3ccc(F)cc3)CC2)cn1` [1-(4-Fluoro-phenyl)-1H-pyrazolo[3,4-c]pyridine-4-carboxylic acid [1-(6-methylamino-pyridin-3-yl)-cyclopropyl]-amide] gave an IC50 of 28 nM. For `O=C(NC1(c2ccc(N3CCOCC3)nc2)CC1)c1cncc2c1cnn2-c1ccc(F)cc1` [1-(4-Fluoro-phenyl)-1H-pyrazolo[3,4-c]pyridine-4-carboxylic acid [1-(6-morpholin-4-yl-pyridin-3-yl)-cyclopropyl]-amide], the IC50 was 6 nM. For `NS(=O)(=O)c1ccc(C2(NC(=O)c3cncc4c3cnn4-c3ccc(F)cc3)CC2)cn1` [1-(4-Fluoro-phenyl)-1H-pyrazolo[3,4-c]pyridine-4-carboxylic acid [1-(6-sulfamoyl-pyridin-3-yl)-cyclopropyl]-amide], the IC50 was 5 nM. With `NC(=O)CNC(=O)c1cccc(C2(NC(=O)c3cncc4c3cnn4-c3ccc(F)cc3)CC2)c1` [1-(4-Fluoro-phenyl)-1H-pyrazolo[3,4-c]pyridine-4-carboxylic acid {1-[3-(carbamoylmethyl-carbamoyl)-phenyl]-cyclopropyl}-amide] the IC50 was 74 nM. For `N#CCNC(=O)c1cccc(C2(NC(=O)c3cncc4c3cnn4-c3ccc(F)cc3)CC2)c1` [1-(4-Fluoro-phenyl)-1H-pyrazolo[3,4-c]pyridine-4-carboxylic acid {1-[3-(cyanomethyl-carbamoyl)-phenyl]-cyclopropyl}-amide], the IC50 was 35 nM. For `CNC(=O)CNC(=O)c1cccc(C2(NC(=O)c3cncc4c3cnn4-c3ccc(F)cc3)CC2)c1` [1-(4-Fluoro-phenyl)-1H-pyrazolo[3,4-c]pyridine-4-carboxylic acid {1-[3-(methylcarbamoylmethyl-carbamoyl)-phenyl]-cyclopropyl}-amide], the IC50 was 78 nM. In the case of `CC(=O)N(C)c1ccc(C2(NC(=O)c3cncc4c3cnn4-c3ccc(F)cc3)CC2)cn1` [1-(4-Fluoro-phenyl)-1H-pyrazolo[3,4-c]pyridine-4-carboxylic acid {1-[6-(acetyl-methyl-amino)-pyridin-3-yl]-cyclopropyl}-amide], the IC50 is reported as 20 nM. Compound `CS(=O)(=O)c1cc(C2(NC(=O)c3cc(I)cc4c3cnn4-c3ccc(F)cc3)CC2)ccn1` [1-(4-Fluoro-phenyl)-6-iodo-1H-indazole-4-carboxylic acid [1-(2-methanesulfonyl-pyridin-4-yl)-cyclopropyl]-amide] has an IC50 of 13 nM. For `CS(=O)(=O)c1cc(C(=O)NC2(c3ccnc(S(C)(=O)=O)c3)CC2)c2cnn(-c3ccc(F)cc3)c2c1` [1-(4-Fluoro-phenyl)-6-methanesulfonyl-1H-indazole-4-carboxylic acid [1-(2-methanesulfonyl-pyridin-4-yl)-cyclopropyl]-amide], the IC50 was 7 nM. `COC(=O)C1(NC(=O)c2cccc(C3(NC(=O)c4cncc5c4cnn5-c4ccc(F)cc4)CC3)c2)CC1` [1-[3-(1-{[1-(4-Fluoro-phenyl)-1H-pyrazolo[3,4-c]pyridine-4-carbonyl]-amino}-cyclopropyl)-benzoylamino]-cyclopropanecarboxylic acid methyl ester] was tested, and the IC50 was 98 nM. `COC(=O)c1cccc(C2(NC(=O)c3cncc4c3cnn4-c3ccc(F)cc3)CC2)c1` [3-(1-{[1-(4-Fluoro-phenyl)-1H-pyrazolo[3,4-c]pyridine-4-carbonyl]-amino}-cyclopropyl)-benzoic acid methyl ester] gave an IC50 of 11 nM. `O=C(O)c1cccc(C2(NC(=O)c3cncc4c3cnn4-c3ccc(F)cc3)CC2)c1` [3-(1-{[1-(4-Fluoro-phenyl)-1H-pyrazolo[3,4-c]pyridine-4-carbonyl]-amino}-cyclopropyl)-benzoic acid] showed an IC50 of 27 nM. `COC(=O)CCS(=O)(=O)c1cccc(C2(NC(=O)c3cncc4c3cnn4-c3ccc(F)cc3)CC2)c1` [3-[3-(1-{[1-(4-Fluoro-phenyl)-1H-pyrazolo[3,4-c]pyridine-4-carbonyl]-amino}-cyclopropyl)-benzenesulfonyl]-propionic acid methyl ester] was tested, and the IC50 was 17 nM. In the case of `COC(=O)CCS(=O)(=O)c1ccc(C2(NC(=O)c3cncc4c3cnn4-c3ccc(F)cc3)CC2)cn1` [3-[5-(1-{[1-(4-Fluoro-phenyl)-1H-pyrazolo[3,4-c]pyridine-4-carbonyl]-amino}-cyclopropyl)-pyridine-2-sulfonyl]-propionic acid methyl ester], the IC50 is reported as 10 nM. For `O=C(O)c1ccc(C2(NC(=O)c3cncc4c3cnn4-c3ccc(F)cc3)CC2)cc1` [4-(1-{[1-(4-Fluoro-phenyl)-1H-pyrazolo[3,4-c]pyridine-4-carbonyl]-amino}-cyclopropyl)-benzoic acid], the IC50 was 69 nM. `CS(=O)(=O)c1cc(C2(NC(=O)c3cc(Br)cc4c3cnn4-c3ccc(F)cc3)CC2)ccn1` [6-Bromo-1-(4-fluoro-phenyl)-1H-indazole-4-carboxylic acid [1-(2-methanesulfonyl-pyridin-4-yl)-cyclopropyl]-amide] was tested, and the IC50 was 2 nM. With `CS(=O)(=O)c1cc(C2(NC(=O)c3cc(C#N)cc4c3cnn4-c3ccc(F)cc3)CC2)ccn1` [6-Cyano-1-(4-fluoro-phenyl)-1H-indazole-4-carboxylic acid [1-(2-methanesulfonyl-pyridin-4-yl)-cyclopropyl]-amide] the IC50 was 0.1 nM. `COC(=O)[C@H](C)NC(=O)c1cccc(C2(NC(=O)c3cncc4c3cnn4-c3ccc(F)cc3)CC2)c1` [(S)-2-[3-(1-{[1-(4-Fluoro-phenyl)-1H-pyrazolo[3,4-c]pyridine-4-carbonyl]-amino}-cyclopropyl)-benzoylamino]-propionic acid methyl ester] showed an IC50 of 80 nM. `CC(C)(C)OC(=O)NCc1ccnc(C2(NC(=O)c3cncc4c3cnn4-c3ccc(F)cc3)CC2)c1` [[2-(1-{[1-(4-Fluoro-phenyl)-1H-pyrazolo[3,4-c]pyridine-4-carbonyl]-amino}-cyclopropyl)-pyridin-4-ylmethyl]-carbamic acid tert-butyl ester] gave an IC50 of 285 nM. For `COC(=O)CNC(=O)c1cccc(C2(NC(=O)c3cncc4c3cnn4-c3ccc(F)cc3)CC2)c1` [[3-(1-{[1-(4-Fluoro-phenyl)-1H-pyrazolo[3,4-c]pyridine-4-carbonyl]-amino}-cyclopropyl)-benzoylamino]-acetic acid methyl ester], the IC50 was 5 nM. With `CC(C)(C)OC(=O)NCc1ccc(C2(NC(=O)c3cncc4c3cnn4-c3ccc(F)cc3)CC2)nc1` [[6-(1-{[1-(4-Fluoro-phenyl)-1H-pyrazolo[3,4-c]pyridine-4-carbonyl]-amino}-cyclopropyl)-pyridin-3-ylmethyl]-carbamic acid tert-butyl ester] the IC50 was 81 nM.

Reference: patent US9056858B2, “Indazole and pyrazolopyridine compounds as CCR1 receptor antagonists” (Boehringer Ingelheim International GmbH, priority 2009, dated 2015)
